Patent publication US20050043381A1, “Aminopyrazole compounds” (AGOURON PHARMACEUTICALS, INC., priority 2003, published 2005)

What was measured:
[1] = target: T1, full-length human CHK1 (FL-CHK1) (Homo sapiens, UniProt O14757); test: FL-CHK1 assay (coupled spectrophotometric, Syntide-2); type: biochemical; details: FL-CHK1, 0.15 mM ATP
T1 construct: C-terminally His-tagged full-length human CHK1 (FL-CHK1); 6xHis (C); made in house
T1 sequence (O14757 1-476): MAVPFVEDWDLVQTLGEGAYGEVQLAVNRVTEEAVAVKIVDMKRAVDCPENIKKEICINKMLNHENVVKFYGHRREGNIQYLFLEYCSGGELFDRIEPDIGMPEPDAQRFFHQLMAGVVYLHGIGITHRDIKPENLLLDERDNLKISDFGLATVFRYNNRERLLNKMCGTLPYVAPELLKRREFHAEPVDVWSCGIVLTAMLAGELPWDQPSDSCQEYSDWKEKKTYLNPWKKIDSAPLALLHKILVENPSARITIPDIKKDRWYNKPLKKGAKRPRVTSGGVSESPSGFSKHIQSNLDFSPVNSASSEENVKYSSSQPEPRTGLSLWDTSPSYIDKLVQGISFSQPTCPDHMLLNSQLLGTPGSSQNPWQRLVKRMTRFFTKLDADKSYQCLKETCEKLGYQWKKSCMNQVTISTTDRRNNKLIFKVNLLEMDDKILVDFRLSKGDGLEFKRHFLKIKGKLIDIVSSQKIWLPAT
Description: C-terminally His-tagged full-length human CHK1 (FL-CHK1) was expressed using the baculovirus/insect cell system. It contains 6 histidine residues (6 x His-tag) at the C-terminus of the 476 amino acid human CHK1. The protein was purified by conventional chromatographic techniques.
The production of ADP from ATP that accompanies phosphoryl transfer to the synthetic substrate peptide Syntide-2 (PLARTLSVAGLPGKK) was coupled to oxidation of NADH using phosphoenolpyruvate (PEP) through the actions of pyruvate kinase (PK) and lactic dehydrogenase (LDH). The oxidation of NADH was monitored by following the decrease of absorbance at 340 nm (ε340=6.22 cm^−1 mM^−1) using a HP8452 spectrophotometer. Typical reaction solutions contained: […] PEP; 0.15 mM NADH; 28 units of LDH/mL; 16 units of PK/mL; 3 mM DTT; 0.125 mM Syntide-2; 0.15 mM ATP; 25 mM MgCl2 in 50 mM TRIS, pH 7.5; and 400 mM NaCl. Assays were initiated with 10 nM of FL-CHK1. Ki values were determined by measuring initial enzyme activity in the presence of varying concentrations of test compounds. The data were analyzed using Enzyme Kinetic and Kaleidagraph software. […]

CA-46 (lymphoma) cells = test: Whole cell checkpoint abrogation assay (CHK1 Mitotic Index ELISA); type: cell-based; details: @ 1 μM
Method: To examine the in vitro effects of CHK1 inhibitory compounds, an ELISA assay can be designed to monitor the abrogation of DNA damage-induced checkpoint control. The assay can be based on the trapping and detection of mitotic cells following DNA damage-induced arrest.
CA-46 (lymphoma) cells can be treated with a DNA damaging agent, such as camptothecin (Sigma), at 50 nM for 8 hours to induce DNA damage. The control compound or CHK1 inhibitor can be then added at increasing concentrations with Nocodazole (Sigma) at 0.1 μg/ml and plates can be incubated for 16 hours. Control cells, where only CHK1 inhibitors can be added, can be prepared as well to assure that the inhibitors alone have no effect on the cell cycle. The cells can be then harvested, washed with PBS, and crude acid extraction can be performed. Pellets can be resuspended in 80 μl of Acid Extraction Buffer (10 mM Hepes pH 7.9, 1.5 mM MgCl2, 10 mM KCl, 0.5 mM DTT, 1.5 mM PMSF, 0.4N sulfuric acid), vortexed briefly, and incubated for 30 minutes on ice. Samples can be then centrifuged and 75 μl of the supernatant can be transferred to a 96 well flat-bottom plate (VWR 3596). Next 15 μl Neutralizing Cocktail (# of samples×(10 μl 10N NaOH+5 μl 1M Tris Base) can be added to each well, and after mixing, 5 μl of this can be transferred to another 96 well plate with 100 μl 50 mM Tris base (pH 9.6) in each well. Samples can be dried overnight. The wells can be then washed with 200 μl ELISA wash buffer (PBS with 20 mM Tris pH 7.5, 0.05% Tween 20) 5 times and blocked with 200 μl blocking buffer (PBS with 20 mM Tris pH 7.5, 0.05% Tween 20, 3.5% Dry milk, 1.5% BSA. pH to 7.5 after preparation) for 1 hour at room temperature. Following wash and block, anti-phospho Histone H3 antibodies (Upstate USA, Inc., rabbit polyclonal) can be added at 0.5 μg/ml in block (100 μl per well) and incubated for 2 hours at room temperature. Wells can be washed again to remove unbound primary antibody and 100 μl alkaline phosphatase conjugated secondary antibodies at 0.3 mg/ml (Pierce, goat anti-rabbit IgG ([…]+L)) in block can be added for 1 hour at room temp. Wells can be washed 5 times to remove unbound secondary antibody, and washed again 3 times with PBS alone to remove detergents. Then 100 μl alkaline phosphatase substrate (Pierce 1-Step pNPP) can be added to wells. Plates can be protected from light and incubated at room temp for 1 hour. The OD can be read on Molecular Devices Vmax Kinetic Microplate Reader at 405 nm. The ratio of the OD (optical density) of a compound treated sample to the Nocodazole only treated sample (about 100% mitotic or abrogation) can be expressed in a percentage, and quantifies the percent abrogation of the checkpoint. The concentration at which a compound causes 50% abrogation of the checkpoint can be called the EC50. The raw OD values can be graphed in Excel, and an EC50 value can be generated using Kaleidograph software. Strong signal results from Nocodazole only treated cells, and equals 100% mitosis in this assay. Camptothecin+Nocodazole treated control samples have low signal, signifying no mitosis and therefore, no checkpoint abrogation. When potent CHK1 inhibitors are added to Camptothecin treated cells with Nocodazole, a high signal can be generated (generally in a dose dependent manner), due to the checkpoint abrogation activity caused by the combination treatment.

Oc1ccc(-c2ccc(-c3cc(Nc4ccc(CNC5CC5)nc4)n[nH]3)cc2)c(O)c1 [Example 24, 4′-[5-({6-[(cyclopropylamino)methyl]pyridin-3-yl}amino)-1H-pyrazol-3-yl]-1,1′-biphenyl-2,4-diol]
Ki [1]: 1 to 10 nM
percent abrogation of the checkpoint (CA-46 (lymphoma) cells): 1% @ 1 μM
